Results taken from PubChem BioAssay (NCI).
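A five-concentration, 48-hour dose response in 96-well plates underlies each endpoint, interpolated linearly between surrounding concentrations. At the TGI there is no net growth.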

Legend:
Assay in all cases: NCI tumour cell line growth inhibition, 48 h
A498 renal = system: A498 renal
A549 NSCLC = system: A549 NSCLC
CCRF-CEM leukemia = system: CCRF-CEM leukemia
COLO 205 colon = system: COLO 205 colon
DLD-1 colon = system: DLD-1 colon
DMS 114 small cell lung = system: DMS 114 small cell lung
DMS 273 small cell lung = system: DMS 273 small cell lung
EKVX NSCLC = system: EKVX NSCLC
HCC-2998 colon = system: HCC-2998 colon
HCT-116 colon = system: HCT-116 colon
HCT-15 colon = system: HCT-15 colon
HL-60(TB) leukemia = system: HL-60(TB) leukemia
HOP-18 NSCLC = system: HOP-18 NSCLC
HOP-62 NSCLC = system: HOP-62 NSCLC
HOP-92 NSCLC = system: HOP-92 NSCLC
HT29 colon = system: HT29 colon
IGROV1 ovarian = system: IGROV1 ovarian
K-562 leukemia = system: K-562 leukemia
KM12 colon = system: KM12 colon
KM20L2 colon = system: KM20L2 colon
LOX IMVI melanoma = system: LOX IMVI melanoma
M19-MEL melanoma = system: M19-MEL melanoma
MALME-3M melanoma = system: MALME-3M melanoma
MCF7 breast = system: MCF7 breast
MOLT-4 leukemia = system: MOLT-4 leukemia
NCI-H23 lung = system: NCI-H23 lung
NCI-H460 lung = system: NCI-H460 lung
NCI-H522 lung = system: NCI-H522 lung
NCI/ADR-RES ovarian = system: NCI/ADR-RES ovarian
OVCAR-3 ovarian = system: OVCAR-3 ovarian
OVCAR-4 ovarian = system: OVCAR-4 ovarian
OVCAR-5 ovarian = system: OVCAR-5 ovarian
OVCAR-8 ovarian = system: OVCAR-8 ovarian
P388 leukemia = system: P388 leukemia
RPMI-8226 leukemia = system: RPMI-8226 leukemia
RXF 393 renal = system: RXF 393 renal
SF-268 CNS = system: SF-268 CNS
SF-539 CNS = system: SF-539 CNS
SK-MEL-2 melanoma = system: SK-MEL-2 melanoma
SK-MEL-28 melanoma = system: SK-MEL-28 melanoma
SK-MEL-5 melanoma = system: SK-MEL-5 melanoma
SN12C renal = system: SN12C renal
SN12K1 renal = system: SN12K1 renal
SNB-19 CNS = system: SNB-19 CNS
SNB-75 CNS = system: SNB-75 CNS
SNB-78 CNS = system: SNB-78 CNS
SW-620 colon = system: SW-620 colon
U251 CNS = system: U251 CNS
UACC-257 melanoma = system: UACC-257 melanoma
UACC-62 melanoma = system: UACC-62 melanoma
CAKI-1 renal = system: CAKI-1 renal
P388/ADR leukemia = system: P388/ADR leukemia
SF-295 CNS = system: SF-295 CNS
SK-OV-3 ovarian = system: SK-OV-3 ovarian
UO-31 renal = system: UO-31 renal
XF 498 CNS = system: XF 498 CNS
786-0 renal = system: 786-0 renal
ACHN renal = system: ACHN renal
LXFL 529 NSCLC = system: LXFL 529 NSCLC
M14 melanoma = system: M14 melanoma
NCI-H226 lung = system: NCI-H226 lung
RXF-631 renal = system: RXF-631 renal
SR leukemia = system: SR leukemia
TK-10 renal = system: TK-10 renal

`NC1CCCCC1` was tested, and the TGI (A498 renal) was over 562 µM, the TGI (A549 NSCLC) was over 562 µM and the TGI (CCRF-CEM leukemia) was over 562 µM. It also gave a TGI (COLO 205 colon) of over 56.2 µM, a TGI (DLD-1 colon) of over 562 µM and a TGI (DMS 114 small cell lung) of over 56.2 µM. For the same compound, the TGI (DMS 273 small cell lung) was over 562 µM, the TGI (EKVX NSCLC) was over 562 µM and the TGI (HCC-2998 colon) was over 562 µM. It also gave a TGI (HCT-116 colon) of over 562 µM, a TGI (HCT-15 colon) of over 562 µM and a TGI (HL-60(TB) leukemia) of 380 µM. For the same compound, the TGI (HOP-18 NSCLC) was under 0.0562 µM, the TGI (HOP-62 NSCLC) was over 562 µM and the TGI (HOP-92 NSCLC) was over 562 µM. The TGI (HT29 colon) was over 562 µM, the TGI (IGROV1 ovarian) was over 562 µM and the TGI (K-562 leukemia) was over 562 µM. The TGI (KM12 colon) was over 562 µM, the TGI (KM20L2 colon) was over 562 µM and the TGI (LOX IMVI melanoma) was over 562 µM. The TGI (M19-MEL melanoma) was over 562 µM, the TGI (MALME-3M melanoma) was over 562 µM and the TGI (MCF7 breast) was over 562 µM. It also gave a TGI (MOLT-4 leukemia) of over 562 µM, a TGI (NCI-H23 lung) of over 562 µM and a TGI (NCI-H460 lung) of over 562 µM. For the same compound, the TGI (NCI-H522 lung) was over 562 µM, the TGI (NCI/ADR-RES ovarian) was over 562 µM and the TGI (OVCAR-3 ovarian) was over 562 µM. The TGI (OVCAR-4 ovarian) was over 562 µM, the TGI (OVCAR-5 ovarian) was over 562 µM and the TGI (OVCAR-8 ovarian) was over 562 µM. The TGI (P388 leukemia) was 243 µM, the TGI (RPMI-8226 leukemia) was over 562 µM and the TGI (RXF 393 renal) was over 562 µM. The TGI (SF-268 CNS) was over 562 µM, the TGI (SF-539 CNS) was 418 µM and the TGI (SK-MEL-2 melanoma) was over 562 µM. The TGI (SK-MEL-28 melanoma) was over 562 µM, the TGI (SK-MEL-5 melanoma) was over 562 µM and the TGI (SN12C renal) was over 562 µM. It also gave a TGI (SN12K1 renal) of over 562 µM, a TGI (SNB-19 CNS) of over 562 µM and a TGI (SNB-75 CNS) of over 562 µM. It also gave a TGI (SNB-78 CNS) of over 562 µM, a TGI (SW-620 colon) of over 562 µM and a TGI (U251 CNS) of over 562 µM. It also gave a TGI (UACC-257 melanoma) of over 562 µM and a TGI (UACC-62 melanoma) of over 562 µM.

Work on `CN(C)C(=O)N(CCCl)N=O` yielded a TGI (A498 renal) of over 100 µM, a TGI (A549 NSCLC) of over 100 µM and a TGI (CAKI-1 renal) of over 100 µM. It also gave a TGI (CCRF-CEM leukemia) of over 100 µM, a TGI (COLO 205 colon) of over 100 µM and a TGI (DLD-1 colon) of over 100 µM. For the same compound, the TGI (DMS 114 small cell lung) was over 100 µM, the TGI (DMS 273 small cell lung) was over 100 µM and the TGI (EKVX NSCLC) was over 100 µM. For the same compound, the TGI (HCC-2998 colon) was over 100 µM, the TGI (HCT-116 colon) was over 100 µM and the TGI (HCT-15 colon) was over 100 µM. For the same compound, the TGI (HL-60(TB) leukemia) was over 100 µM, the TGI (HOP-18 NSCLC) was over 100 µM and the TGI (HOP-62 NSCLC) was over 100 µM. For the same compound, the TGI (HOP-92 NSCLC) was over 100 µM, the TGI (HT29 colon) was over 100 µM and the TGI (IGROV1 ovarian) was over 100 µM. It also gave a TGI (K-562 leukemia) of over 100 µM, a TGI (KM12 colon) of over 100 µM and a TGI (KM20L2 colon) of over 100 µM. For the same compound, the TGI (LOX IMVI melanoma) was over 100 µM, the TGI (M19-MEL melanoma) was over 100 µM and the TGI (MALME-3M melanoma) was over 100 µM. It also gave a TGI (MCF7 breast) of over 100 µM, a TGI (MOLT-4 leukemia) of over 100 µM and a TGI (NCI-H23 lung) of over 100 µM. The TGI (NCI-H460 lung) was over 100 µM, the TGI (NCI-H522 lung) was over 100 µM and the TGI (NCI/ADR-RES ovarian) was over 100 µM. The TGI (OVCAR-3 ovarian) was over 100 µM, the TGI (OVCAR-4 ovarian) was over 100 µM and the TGI (OVCAR-5 ovarian) was over 100 µM. The TGI (OVCAR-8 ovarian) was over 100 µM, the TGI (P388 leukemia) was over 100 µM and the TGI (P388/ADR leukemia) was over 100 µM. It also gave a TGI (RPMI-8226 leukemia) of over 100 µM, a TGI (RXF 393 renal) of over 100 µM and a TGI (SF-268 CNS) of over 100 µM. For the same compound, the TGI (SF-295 CNS) was over 100 µM, the TGI (SF-539 CNS) was over 100 µM and the TGI (SK-MEL-2 melanoma) was over 100 µM. The TGI (SK-MEL-28 melanoma) was over 100 µM, the TGI (SK-MEL-5 melanoma) was over 100 µM and the TGI (SK-OV-3 ovarian) was over 100 µM. For the same compound, the TGI (SN12C renal) was over 100 µM, the TGI (SN12K1 renal) was over 100 µM and the TGI (SNB-19 CNS) was over 100 µM. The TGI (SNB-75 CNS) was over 100 µM, the TGI (SNB-78 CNS) was over 100 µM and the TGI (SW-620 colon) was over 100 µM. The TGI (U251 CNS) was over 100 µM, the TGI (UACC-257 melanoma) was over 100 µM and the TGI (UACC-62 melanoma) was over 100 µM. It also gave a TGI (UO-31 renal) of over 100 µM and a TGI (XF 498 CNS) of over 100 µM.

For `CCOc1ccc(Nc2nc(C)c(C(=O)/C=C/c3ccc(Cl)cc3Cl)s2)cc1`, the TGI (786-0 renal) was 36.3 µM, the TGI (A498 renal) was 50.5 µM and the TGI (A549 NSCLC) was 45.9 µM. It also gave a TGI (ACHN renal) of 71 µM, a TGI (CAKI-1 renal) of 55.4 µM and a TGI (CCRF-CEM leukemia) of 80.2 µM. The TGI (COLO 205 colon) was 32.3 µM, the TGI (DLD-1 colon) was 84.5 µM and the TGI (DMS 114 small cell lung) was 56.5 µM. The TGI (DMS 273 small cell lung) was 45 µM, the TGI (EKVX NSCLC) was 85.7 µM and the TGI (HCC-2998 colon) was 43.9 µM. For the same compound, the TGI (HCT-116 colon) was 38.3 µM, the TGI (HCT-15 colon) was 48.6 µM and the TGI (HL-60(TB) leukemia) was 65.6 µM. The TGI (HOP-18 NSCLC) was 66.7 µM, the TGI (HOP-62 NSCLC) was 81.3 µM and the TGI (HOP-92 NSCLC) was 68.3 µM. It also gave a TGI (HT29 colon) of 39.4 µM, a TGI (IGROV1 ovarian) of 85.1 µM and a TGI (K-562 leukemia) of 93.5 µM. The TGI (KM12 colon) was 33.5 µM, the TGI (KM20L2 colon) was 52.2 µM and the TGI (LOX IMVI melanoma) was 31.8 µM. For the same compound, the TGI (LXFL 529 NSCLC) was 37.5 µM, the TGI (M14 melanoma) was 50.1 µM and the TGI (M19-MEL melanoma) was 47.4 µM. It also gave a TGI (MALME-3M melanoma) of 62.7 µM, a TGI (MOLT-4 leukemia) of 51.5 µM and a TGI (NCI-H226 lung) of 36.9 µM. For the same compound, the TGI (NCI-H23 lung) was 44.1 µM, the TGI (NCI-H460 lung) was 42.6 µM and the TGI (NCI-H522 lung) was 43.2 µM. The TGI (OVCAR-3 ovarian) was 41 µM, the TGI (OVCAR-4 ovarian) was 28.7 µM and the TGI (OVCAR-5 ovarian) was over 100 µM. For the same compound, the TGI (OVCAR-8 ovarian) was 40.7 µM, the TGI (RPMI-8226 leukemia) was over 100 µM and the TGI (RXF 393 renal) was 40.6 µM. For the same compound, the TGI (RXF-631 renal) was 54.8 µM, the TGI (SF-268 CNS) was 77.3 µM and the TGI (SF-295 CNS) was 38.5 µM. It also gave a TGI (SF-539 CNS) of 78.8 µM, a TGI (SK-MEL-2 melanoma) of 61.6 µM and a TGI (SK-MEL-28 melanoma) of 51 µM. The TGI (SK-MEL-5 melanoma) was 38.8 µM, the TGI (SK-OV-3 ovarian) was 54.3 µM and the TGI (SN12C renal) was 37.1 µM. It also gave a TGI (SNB-19 CNS) of over 100 µM, a TGI (SNB-75 CNS) of 39.3 µM and a TGI (SNB-78 CNS) of 67.9 µM. It also gave a TGI (SR leukemia) of 71.2 µM, a TGI (SW-620 colon) of 38.7 µM and a TGI (TK-10 renal) of 52.6 µM. It also gave a TGI (U251 CNS) of 37.9 µM, a TGI (UACC-257 melanoma) of 53.8 µM and a TGI (UACC-62 melanoma) of 77.4 µM. For the same compound, the TGI (UO-31 renal) was 51 µM and the TGI (XF 498 CNS) was 39.1 µM.
